# From article PMC8523698, “Preclinical characterization of an intravenous coronavirus 3CL protease inhibitor for the potential treatment of COVID19” (Nature Communications, 2021)
# “And” between values parts separate entries of the source, which are not always exact repeats. Equal entries are not always repeated. Where two headings read alike, the source gives them in different places.
# Legend:
# [1] = system: SARS-CoV-2 Belgium/GHB-03021/2020 strain; experiment: microbe, parasite or virus in culture; type: cell-based; conditions: Severe acute respiratory syndrome coronavirus 2
# OAT1 = molecular target: T1, OAT1 (Homo sapiens, UniProt Q4U2R8); experiment: Transporter inhibition using transfected HEK293 cells
# T1 sequence (Q4U2R8 1-563): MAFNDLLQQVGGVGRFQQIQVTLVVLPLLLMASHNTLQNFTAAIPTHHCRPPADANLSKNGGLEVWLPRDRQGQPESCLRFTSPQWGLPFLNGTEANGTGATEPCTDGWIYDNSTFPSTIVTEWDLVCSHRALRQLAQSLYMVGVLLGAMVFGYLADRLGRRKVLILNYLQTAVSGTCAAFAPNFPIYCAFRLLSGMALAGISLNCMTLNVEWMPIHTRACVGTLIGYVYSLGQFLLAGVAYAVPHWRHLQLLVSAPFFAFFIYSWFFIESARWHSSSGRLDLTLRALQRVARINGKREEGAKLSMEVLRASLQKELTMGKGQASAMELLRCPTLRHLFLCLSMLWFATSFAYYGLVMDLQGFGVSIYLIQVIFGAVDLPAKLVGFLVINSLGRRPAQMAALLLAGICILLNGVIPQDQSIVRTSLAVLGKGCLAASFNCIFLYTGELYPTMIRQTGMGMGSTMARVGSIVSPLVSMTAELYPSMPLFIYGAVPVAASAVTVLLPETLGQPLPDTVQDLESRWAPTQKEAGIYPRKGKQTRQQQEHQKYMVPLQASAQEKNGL
# [2] = Plasma protein binding by equilibrium dialysis; conditions: for fraction unbound at 6 h, 5 uM / fraction unbound at 6 h: dog, plasma
# CYP1A2 = molecular target: T2, CYP1A2 (Homo sapiens, UniProt P05177); experiment: Reversible CYP inhibition in human liver microsomes; conditions: for activity at 0.1 µM / activity at 0.214 µM / activity at 0.979 µM / activity at 2.09 µM / activity at 4.48 µM / activity at 20.5 µM / activity at 43.8 µM / activity at 93.5 µM / activity at 200 µM: pH 7.4, Percent of Control Activity
# T2 sequence (P05177 1-516): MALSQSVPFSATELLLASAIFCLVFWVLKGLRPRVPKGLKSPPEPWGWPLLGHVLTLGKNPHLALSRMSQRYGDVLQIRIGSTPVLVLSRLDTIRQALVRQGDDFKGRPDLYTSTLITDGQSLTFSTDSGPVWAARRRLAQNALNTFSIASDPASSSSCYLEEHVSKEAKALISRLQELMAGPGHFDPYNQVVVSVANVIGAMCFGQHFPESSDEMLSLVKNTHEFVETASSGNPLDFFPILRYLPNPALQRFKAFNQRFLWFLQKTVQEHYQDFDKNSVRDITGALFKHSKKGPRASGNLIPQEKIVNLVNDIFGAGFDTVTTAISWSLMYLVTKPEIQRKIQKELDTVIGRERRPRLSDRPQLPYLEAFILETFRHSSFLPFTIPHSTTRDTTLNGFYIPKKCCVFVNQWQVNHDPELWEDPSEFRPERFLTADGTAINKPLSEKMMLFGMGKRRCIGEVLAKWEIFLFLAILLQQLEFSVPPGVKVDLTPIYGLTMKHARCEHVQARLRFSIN
# [3] = system: Salmonella typhimurium strains and E. coli strain WP2 uvrA; experiment: Bacterial reverse mutation assay; conditions: with and without metabolic activation
# OAT3 = molecular target: T3, OAT3 (Homo sapiens, UniProt Q8TCC7); experiment: Transporter inhibition using transfected HEK293 cells
# T3 sequence (Q8TCC7 1-542): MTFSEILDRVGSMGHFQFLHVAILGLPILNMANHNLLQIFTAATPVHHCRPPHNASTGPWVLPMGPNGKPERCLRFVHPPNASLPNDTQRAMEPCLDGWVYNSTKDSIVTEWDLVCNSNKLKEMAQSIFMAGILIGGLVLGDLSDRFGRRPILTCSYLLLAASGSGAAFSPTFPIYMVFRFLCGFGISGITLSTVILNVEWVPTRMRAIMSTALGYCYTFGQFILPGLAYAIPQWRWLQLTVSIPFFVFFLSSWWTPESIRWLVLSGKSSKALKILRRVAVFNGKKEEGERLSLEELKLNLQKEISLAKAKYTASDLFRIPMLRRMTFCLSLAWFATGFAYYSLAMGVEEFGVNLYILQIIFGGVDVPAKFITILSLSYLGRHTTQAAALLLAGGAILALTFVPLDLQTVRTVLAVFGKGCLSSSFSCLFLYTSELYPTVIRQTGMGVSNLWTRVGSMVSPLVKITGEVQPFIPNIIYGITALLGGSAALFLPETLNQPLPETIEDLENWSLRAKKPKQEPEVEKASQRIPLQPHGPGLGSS
# [4] = Human blood hemocompatibility (hemolysis, flocculation)
# hERG channel = hERG channel (Homo sapiens, UniProt Q12809); experiment: hERG potassium channel current assay; conditions: 300 µM vs projected Cmax at projected human efficacious dose
# CYP3A4/5 = experiment: Time-dependent inhibition of CYP enzymes in human liver microsomes
# Sequence of hERG channel (Q12809 whole entry): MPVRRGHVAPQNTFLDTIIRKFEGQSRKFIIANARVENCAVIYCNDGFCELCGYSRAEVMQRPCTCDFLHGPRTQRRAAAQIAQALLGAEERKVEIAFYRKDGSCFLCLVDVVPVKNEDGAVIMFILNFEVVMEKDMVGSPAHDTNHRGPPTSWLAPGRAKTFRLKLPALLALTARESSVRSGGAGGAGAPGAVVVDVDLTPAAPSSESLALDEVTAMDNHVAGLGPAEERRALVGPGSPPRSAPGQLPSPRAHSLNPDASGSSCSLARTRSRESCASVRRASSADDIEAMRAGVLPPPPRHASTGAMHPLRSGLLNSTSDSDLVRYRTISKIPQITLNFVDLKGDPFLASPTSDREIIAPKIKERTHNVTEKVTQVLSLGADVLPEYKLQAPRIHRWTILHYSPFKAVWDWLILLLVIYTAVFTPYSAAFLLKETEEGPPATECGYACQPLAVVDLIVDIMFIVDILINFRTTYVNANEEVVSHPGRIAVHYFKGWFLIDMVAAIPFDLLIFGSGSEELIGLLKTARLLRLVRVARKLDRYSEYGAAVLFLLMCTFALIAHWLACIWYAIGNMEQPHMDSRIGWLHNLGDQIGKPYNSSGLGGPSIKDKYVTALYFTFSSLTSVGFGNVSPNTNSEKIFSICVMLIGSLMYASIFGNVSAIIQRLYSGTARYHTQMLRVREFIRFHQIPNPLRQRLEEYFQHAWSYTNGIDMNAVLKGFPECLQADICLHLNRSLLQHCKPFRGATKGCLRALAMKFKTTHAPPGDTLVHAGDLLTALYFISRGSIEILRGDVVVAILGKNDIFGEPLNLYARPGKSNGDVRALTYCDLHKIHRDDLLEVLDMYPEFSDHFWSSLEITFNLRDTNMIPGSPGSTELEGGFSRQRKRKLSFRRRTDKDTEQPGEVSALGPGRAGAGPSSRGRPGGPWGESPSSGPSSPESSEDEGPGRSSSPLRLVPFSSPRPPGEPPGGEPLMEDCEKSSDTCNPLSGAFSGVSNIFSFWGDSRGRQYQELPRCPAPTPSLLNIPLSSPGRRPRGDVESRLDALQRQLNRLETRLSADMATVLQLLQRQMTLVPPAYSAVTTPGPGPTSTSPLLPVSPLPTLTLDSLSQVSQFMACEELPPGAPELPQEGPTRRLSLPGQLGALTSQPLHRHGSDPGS
smiles,measurement,setting,value
COc1cccc2[nH]c(C(=O)N[C@@H](CC(C)C)C(=O)N[C@@H](C[C@@H]3CCNC3=O)C(=O)CO)cc12 [PF-00835231],EC90,[1],1.6 µM
same,CC50,"in vitro; African green monkey, CC50",> 100 µM
same,CC50,"in vitro; African green monkey, CC50, n=1",> 50 µM
same,CC50,"in vitro; monkey, CC50",> 50 µM
same,CC50,"in vitro; monkey, CC50, n=1",> 50 µM
same,CC50,"in vitro; monkey, CC50 GeoMean (95% CI)",> 100 µM
same,IC50,OAT1,> 300 µM
same,IC50,"OAT1; human, HEK293 cells transfected with OAT1, pH 7.4, probe [3H] para-aminohippuric acid (0.5 µM)",> 20 µM
same,"fraction unbound at 6 h, 5 uM","[2]; Beagle, pH 7.4, Fraction unbound, Geomean, Dog plasma, 5.0 uM, n 12",0.416
same,"fraction unbound at 6 h, 5 uM","[2]; Beagle, pH 7.4, Individual fraction unbound, Dog Beagle plasma, 5.0 uM, replicates Day 1-3",0.401
same,Individual fraction unbound,"[2]; Dog Beagle plasma, 5.0 uM, replicates Day 1-3",0.386 and 0.435 and 0.45 and 0.406 and 0.488 and 0.451 and 0.403 and 0.342 and 0.444 and 0.382 and 0.419
same,fraction unbound at 6 h,"[2]; pH 7.4, Plasma fu, Vdss input",0.416
same,fraction unbound at 6 h,"[2]; pH 7.4, Unbound fraction fu (%CV), dog plasma",0.416
same,"fraction unbound at 6 h, 5 uM","[2]; pH 7.4, fraction unbound Geomean, dog plasma, 5.0 uM, n=12",0.416
same,Percent of Control Activity,"CYP1A2; CYP 1A2, 0.1 µM, 30-Minute Preincubation, 0.1 µM",100.7% and 97.2%
same,Percent of Control Activity,"CYP1A2; CYP 1A2, 0.1 µM, Zero-Minute Preincubation, 0.1 µM",91.5%
same,Percent of Control Activity,"CYP1A2; CYP 1A2, 0.214 µM, 30-Minute Preincubation, 0.214 µM",101.6% and 102.2%
same,Percent of Control Activity,"CYP1A2; CYP 1A2, 0.214 µM, Zero-Minute Preincubation, 0.214 µM",97.3%
same,Percent of Control Activity,"CYP1A2; CYP 1A2, 0.979 µM, 30-Minute Preincubation, 0.979 µM",100.1% and 99.5%
same,Percent of Control Activity,"CYP1A2; CYP 1A2, 0.979 µM, Zero-Minute Preincubation, 0.979 µM",99.8% and 102.1%
same,Percent of Control Activity,"CYP1A2; CYP 1A2, 2.09 µM, 30-Minute Preincubation, 2.09 µM",98.8%
same,Percent of Control Activity,"CYP1A2; CYP 1A2, 2.09 µM, Zero-Minute Preincubation, 2.09 µM",90.6% and 85.1%
same,Percent of Control Activity,"CYP1A2; CYP 1A2, 4.48 µM, 30-Minute Preincubation, 4.48 µM",99.2% and 99.5%
same,Percent of Control Activity,"CYP1A2; CYP 1A2, 4.48 µM, Zero-Minute Preincubation, 4.48 µM",97.7%
same,Percent of Control Activity,"CYP1A2; CYP 1A2, 20.5 µM, 30-Minute Preincubation, 20.5 µM",99.6% and 97.2%
same,Percent of Control Activity,"CYP1A2; CYP 1A2, 20.5 µM, Zero-Minute Preincubation, 20.5 µM",95.6% and 98.0%
same,Percent of Control Activity,"CYP1A2; CYP 1A2, 43.8 µM, 30-Minute Preincubation, 43.8 µM",96.6% and 97.7%
same,Percent of Control Activity,"CYP1A2; CYP 1A2, 43.8 µM, Zero-Minute Preincubation, 43.8 µM",92.9% and 93.4%
same,Percent of Control Activity,"CYP1A2; CYP 1A2, 93.5 µM, 30-Minute Preincubation, 93.5 µM",90.5% and 95.8%
same,Percent of Control Activity,"CYP1A2; CYP 1A2, 93.5 µM, Zero-Minute Preincubation, 93.5 µM",76.6% and 87.4%
same,Percent of Control Activity,"CYP1A2; CYP 1A2, 200 µM, 30-Minute Preincubation, 200 µM",92.7% and 91.0%
same,Percent of Control Activity,"CYP1A2; CYP 1A2, 200 µM, Zero-Minute Preincubation, 200 µM",81.0% and 74.4%
same,IC50,"CYP1A2; human, microsomes, pH 7.4",> 200 µM
same,activity at 0.1 µM,"CYP1A2; human, microsomes, CYP 1A2, 0.1 µM, 30-Minute Preincubation",98%
same,activity at 0.1 µM,"CYP1A2; human, microsomes, CYP 1A2, 0.1 µM, Zero-Minute Preincubation",97.8%
same,activity at 0.214 µM,"CYP1A2; human, microsomes, CYP 1A2, 0.214 µM, 30-Minute Preincubation",96.5%
same,activity at 0.214 µM,"CYP1A2; human, microsomes, CYP 1A2, 0.214 µM, Zero-Minute Preincubation",98.4%
same,activity at 0.979 µM,"CYP1A2; human, microsomes, CYP 1A2, 0.979 µM, 30-Minute Preincubation",98.9%
same,activity at 0.979 µM,"CYP1A2; human, microsomes, CYP 1A2, 0.979 µM, Zero-Minute Preincubation",97.6%
same,activity at 2.09 µM,"CYP1A2; human, microsomes, CYP 1A2, 2.09 µM, 30-Minute Preincubation",98.3%
same,activity at 2.09 µM,"CYP1A2; human, microsomes, CYP 1A2, 2.09 µM, Zero-Minute Preincubation",97.8%
same,activity at 4.48 µM,"CYP1A2; human, microsomes, CYP 1A2, 4.48 µM, 30-Minute Preincubation",97%
same,activity at 4.48 µM,"CYP1A2; human, microsomes, CYP 1A2, 4.48 µM, Zero-Minute Preincubation",99.3%
same,activity at 20.5 µM,"CYP1A2; human, microsomes, CYP 1A2, 20.5 µM, 30-Minute Preincubation",97.1%
same,activity at 20.5 µM,"CYP1A2; human, microsomes, CYP 1A2, 20.5 µM, Zero-Minute Preincubation",99.4%
same,activity at 43.8 µM,"CYP1A2; human, microsomes, CYP 1A2, 43.8 µM, 30-Minute Preincubation",95.9%
same,activity at 43.8 µM,"CYP1A2; human, microsomes, CYP 1A2, 43.8 µM, Zero-Minute Preincubation",94.2%
same,activity at 93.5 µM,"CYP1A2; human, microsomes, CYP 1A2, 93.5 µM, 30-Minute Preincubation",89.6%
same,activity at 93.5 µM,"CYP1A2; human, microsomes, CYP 1A2, 93.5 µM, Zero-Minute Preincubation",84.6%
same,activity at 200 µM,"CYP1A2; human, microsomes, CYP 1A2, 200 µM, 30-Minute Preincubation",93.6%
same,activity at 200 µM,"CYP1A2; human, microsomes, CYP 1A2, 200 µM, Zero-Minute Preincubation",81.3%
same,bacterial reverse mutation assay result,[3],negative
same,IC50,OAT3,> 300 µM
same,IC50,"OAT3; human, HEK293 cells transfected with OAT3, pH 7.4, probe [3H] estrone-3-sulfate (0.1 µM)",> 20 µM
same,hemolysis or flocculation/turbidity parameters,[4],no effect on hemolysis or flocculation/turbidity parameters
same,hERG margin in reference to projected unbound human Cmax,hERG channel,600 fold
same,KI ± SE,CYP3A4/5; Midazolam (20 µM),163 ± 31 µM
same,KI ± SE,"CYP3A4/5; Midazolam (20 µM), listed as PF00835231",163 µM
same,KI ± SE,CYP3A4/5; Testosterone ([…]),168 ± 8 µM
same,time-dependent inhibition (TDI) signal,CYP3A4/5; pooled HLM,weak signal
